Test results from PubChem BioAssay (NCI).
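GI50 = concentration required for 50% inhibition of growth. The concentration for full growth arrest is given as TGI.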

Columns and labels:
Test in all cases: NCI-60 cell line screen, 384-well format
HOP-62 NSCLC = tested on: HOP-62 NSCLC
HL-60(TB) leukemia = tested on: HL-60(TB) leukemia
OVCAR-8 ovarian = tested on: OVCAR-8 ovarian
HOP-92 NSCLC = tested on: HOP-92 NSCLC
HCT-116 colon = tested on: HCT-116 colon
PC-3 prostate = tested on: PC-3 prostate
M14 melanoma = tested on: M14 melanoma
SK-OV-3 ovarian = tested on: SK-OV-3 ovarian
A498 renal = tested on: A498 renal
CCRF-CEM leukemia = tested on: CCRF-CEM leukemia
BT-549 breast = tested on: BT-549 breast
ACHN renal = tested on: ACHN renal
MDA-MB-435 melanoma = tested on: MDA-MB-435 melanoma

## Cc1cc(Nc2ncc(Cl)c(Nc3ccccc3S(=O)(=O)C(C)C)n2)c(OC(C)C)cc1C1CCNCC1
HOP-62 NSCLC
  GI50: 1.71 µM
  TGI: 3.1 µM
HL-60(TB) leukemia
  GI50: 0.218 µM
  TGI: 0.49 µM
OVCAR-8 ovarian
  GI50: 1.55 µM
  TGI: 2.9 µM
HOP-92 NSCLC
  GI50: 1.21 µM
  TGI: 2.45 µM
HCT-116 colon
  GI50: 0.826 µM
  TGI: 2.07 µM
PC-3 prostate
  GI50: 1.39 µM
  TGI: 2.71 µM
M14 melanoma
  GI50: 1.27 µM
  TGI: 2.55 µM
SK-OV-3 ovarian
  GI50: 1.75 µM
  TGI: 3.16 µM
A498 renal
  GI50: 1.62 µM
  TGI: 2.99 µM
CCRF-CEM leukemia
  GI50: 1.1 µM
  TGI: 2.43 µM
BT-549 breast
  GI50: 1.88 µM
  TGI: 3.3 µM
ACHN renal
  GI50: 1.77 µM
  TGI: 3.17 µM
MDA-MB-435 melanoma
  GI50: 1.27 µM
  TGI: 2.55 µM
